Test results from PubChem BioAssay AID248 (DTP/NCI, 2004).
Inconclusive results and toxic doses are left out.

Tested on: L1210 leukemia ip in BDF1 mice, survival T/C
Test: NCI In Vivo Anticancer Drug Screen. Data for tumor model L1210 Leukemia (intraperitoneal) in B6D2F1 (BDF1) mice
Conditions: endpoint: mean survival time, higher = longer survival
How it was run: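 Value reflects the ratio of survival in compound-treated mice to survival in vehicle-treated controls, with both groups carrying the same transplanted tumor.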

[1] = dose: 100.0 mg/kg/injection, schedule: Q01DX009 (ip), vehicle: Klucel (hydroxypropylcellulose) (HPC)
[2] = dose: 100.0 mg/kg/injection, schedule: Q04DX003 (ip), vehicle: Klucel (hydroxypropylcellulose) (HPC)
[3] = dose: 200.0 mg/kg/injection, schedule: Q01DX009 (ip), vehicle: Klucel (hydroxypropylcellulose) (HPC)
[4] = dose: 200.0 mg/kg/injection, schedule: Q04DX003 (ip), vehicle: Klucel (hydroxypropylcellulose) (HPC)
[5] = dose: 400.0 mg/kg/injection, schedule: Q01DX009 (ip), vehicle: Klucel (hydroxypropylcellulose) (HPC)
[6] = dose: 400.0 mg/kg/injection, schedule: Q04DX003 (ip), vehicle: Klucel (hydroxypropylcellulose) (HPC)
[7] = dose: 100.0 mg/kg/injection, schedule: Q01DX009 (ip), vehicle: saline
[8] = dose: 100.0 mg/kg/injection, schedule: Q04DX003 (ip), vehicle: saline
[9] = dose: 200.0 mg/kg/injection, schedule: Q04DX003 (ip), vehicle: saline
[10] = dose: 100.0 mg/kg/injection, schedule: Q01DX001 (ip), vehicle: saline
[11] = dose: 200.0 mg/kg/injection, schedule: Q01DX001 (ip), vehicle: saline
[12] = dose: 400.0 mg/kg/injection, schedule: Q01DX001 (ip), vehicle: saline
[13] = dose: 100.0 mg/kg/injection, schedule: Q01DX001 (ip), vehicle: other
[14] = dose: 200.0 mg/kg/injection, schedule: Q01DX001 (ip), vehicle: other
[15] = dose: 400.0 mg/kg/injection, schedule: Q01DX001 (ip), vehicle: other
[16] = dose: 200.0 mg/kg/injection, schedule: Q01DX001 (ip), vehicle: Klucel (hydroxypropylcellulose) (HPC)
[17] = dose: 400.0 mg/kg/injection, schedule: Q01DX001 (ip), vehicle: Klucel (hydroxypropylcellulose) (HPC)
[18] = dose: 200.0 mg/kg/injection, schedule: Q01DX009 (ip), vehicle: saline
[19] = dose: 400.0 mg/kg/injection, schedule: Q01DX009 (ip), vehicle: saline
[20] = dose: 100.0 mg/kg/injection, schedule: Q04DX002 (ip), vehicle: Klucel (hydroxypropylcellulose) (HPC)
[21] = dose: 200.0 mg/kg/injection, schedule: Q04DX002 (ip), vehicle: Klucel (hydroxypropylcellulose) (HPC)
[22] = dose: 400.0 mg/kg/injection, schedule: Q04DX002 (ip), vehicle: Klucel (hydroxypropylcellulose) (HPC)

SMILES: Cc1ccc(CNC(=O)Nc2cccc(C(F)(F)F)c2)cc1C
- T/C (dose: 100.0 mg/kg/injection, schedule: Q01DX009 (ip), vehicle: gum acacia): 89 % of control
- T/C (dose: 200.0 mg/kg/injection, schedule: Q01DX009 (ip), vehicle: gum acacia): 89 % of control

SMILES: CN(Cc1cnc2nc(N)nc(N)c2n1)c1ccc(C(=O)NC(CCC(=O)O)C(=O)O)cc1I (stereo unspecified)
- T/C (dose: 2.5 mg/kg/injection, schedule: Q01DX009 (ip), vehicle: sodium bicarbonate): 176 % of control
- T/C (dose: 5.0 mg/kg/injection, schedule: Q01DX009 (ip), vehicle: sodium bicarbonate): 175 % of control
- T/C (dose: 10.0 mg/kg/injection, schedule: Q01DX009 (ip), vehicle: sodium bicarbonate): 104 % of control

SMILES: Nc1nc2c(c(=O)[nH]1)[N+]1=CN(c3ccc(C(=O)NC(CCC(=O)O)C(=O)O)cc3)CCC1CN2 (stereo unspecified)
- T/C (dose: 1.0 mg/kg/injection, schedule: Q01DX009 (ip), vehicle: saline): 94 % of control
- T/C (dose: 2.0 mg/kg/injection, schedule: Q01DX009 (ip), vehicle: saline): 100 % of control
- T/C (dose: 4.0 mg/kg/injection, schedule: Q01DX009 (ip), vehicle: saline): 105 % of control
- T/C (dose: 4.0 mg/kg/injection, schedule: Q04DX003 (ip), vehicle: saline): 97 % of control
- T/C (dose: 8.0 mg/kg/injection, schedule: Q01DX009 (ip), vehicle: saline): 94 % of control
- T/C (dose: 8.0 mg/kg/injection, schedule: Q04DX003 (ip), vehicle: saline): 100 % of control
- T/C (dose: 16.0 mg/kg/injection, schedule: Q01DX009 (ip), vehicle: saline): 97 % of control
- T/C (dose: 16.0 mg/kg/injection, schedule: Q04DX003 (ip), vehicle: saline): 99 % of control
- T/C (dose: 32.0 mg/kg/injection, schedule: Q04DX003 (ip), vehicle: saline): 90 % of control
- T/C (dose: 64.0 mg/kg/injection, schedule: Q04DX003 (ip), vehicle: saline): 97 % of control

SMILES: c1ccc(CC2(Cc3ccccc3)N=C(c3ccccc3)C(c3ccccc3)=N2)cc1
- T/C [1]: 103 % of control
- T/C [2]: 102 % of control
- T/C [3]: 97 % of control
- T/C [4]: 103 % of control
- T/C [5]: 98 % of control
- T/C [6]: 97 % of control

SMILES: CCCN(C(=O)N([Si](C)(C)C)S(=O)(=O)c1ccc(Cl)cc1)[Si](C)(C)C
- T/C (dose: 50.0 mg/kg/injection, schedule: Q01DX009 (ip), vehicle: saline): 103 % of control
- T/C [7]: 96 % of control

SMILES: COc1ccc(C(C#N)=C2C=CC(=NO)C=C2)cc1
- T/C (dose: 100.0 mg/kg/injection, schedule: Q01DX009 (ip), vehicle: saline with Tween-80): 94 % of control

SMILES: CN1CCC(O)(c2ccccc2)C(/C(=N/O)c2ccccc2)C1 (stereo unspecified)
- T/C [8]: 97 % of control
- T/C [9]: 90 % of control

SMILES: CC(=O)c1ccc2nc(C)cc(Cl)c2c1
- T/C [10]: 96 % of control
- T/C [11]: 91 % of control
- T/C [12]: 96 % of control

SMILES: CC(NS(=O)(=O)Cc1ccccc1)C(=O)O (stereo unspecified)
- T/C [13]: 96 % of control
- T/C (dose: 100.0 mg/kg/injection, schedule: Q04DX003 (ip), vehicle: other): 107 % of control
- T/C [14]: 95 % of control
- T/C (dose: 200.0 mg/kg/injection, schedule: Q04DX003 (ip), vehicle: other): 96 % of control
- T/C [15]: 104 % of control
- T/C (dose: 400.0 mg/kg/injection, schedule: Q04DX003 (ip), vehicle: other): 106 % of control

SMILES: CCOC(=O)N/N=C/c1ccccc1
- T/C [16]: 108 % of control
- T/C [17]: 118 % of control

SMILES: NC(Cc1c[nH]c2ccc(O)cc12)C(=O)O (stereo unspecified)
- T/C (dose: 100.0 mg/kg/injection, schedule: Q01DX001 (ip), vehicle: carboxymethylcellulose (CMC)): 95 % of control
- T/C (dose: 200.0 mg/kg/injection, schedule: Q01DX001 (ip), vehicle: carboxymethylcellulose (CMC)): 102 % of control
- T/C (dose: 400.0 mg/kg/injection, schedule: Q01DX001 (ip), vehicle: carboxymethylcellulose (CMC)): 100 % of control

SMILES: COC(=O)C(NC(C)=O)C(=O)OC
- T/C [1]: 98 % of control
- T/C [2]: 90 % of control
- T/C [3]: 104 % of control
- T/C [4]: 98 % of control
- T/C [5]: 96 % of control
- T/C [6]: 106 % of control

SMILES: COC(=O)c1ccc(Cl)cc1[N+](=O)[O-]
- T/C [7]: 101 % of control
- T/C [18]: 100 % of control
- T/C [19]: 100 % of control

SMILES: Cc1c(C[N+](C)(C)C)c(=O)n(-c2ccccc2)n1C
- T/C [10]: 104 % of control
- T/C [11]: 98 % of control
- T/C [12]: 98 % of control

SMILES: CCOP(=S)(OCC)SCc1c(C)c(C)c(CSP(=S)(OCC)OCC)c(C)c1C
- T/C [1]: 95 % of control
- T/C [2]: 103 % of control
- T/C [3]: 103 % of control
- T/C [4]: 101 % of control
- T/C [5]: 93 % of control
- T/C [6]: 105 % of control

SMILES: CC(=NCc1ccccc1)Nc1ccc(NC(=O)c2ccc(C(=O)Nc3ccc(NC(C)=NCc4ccccc4)cc3)cc2)cc1
- T/C (dose: 15.0 mg/kg/injection, schedule: Q01DX Z (ip), vehicle: carboxymethylcellulose (CMC)): 92 % of control
- T/C (dose: 30.0 mg/kg/injection, schedule: Q01DX Z (ip), vehicle: carboxymethylcellulose (CMC)): 103 % of control
- T/C (dose: 60.0 mg/kg/injection, schedule: Q01DX Z (ip), vehicle: carboxymethylcellulose (CMC)): 95 % of control
- T/C (dose: 120.0 mg/kg/injection, schedule: Q01DX Z (ip), vehicle: carboxymethylcellulose (CMC)): 97 % of control

SMILES: Cc1cc([N+](=O)[O-])c(NC2CCCCC2)c([N+](=O)[O-])c1
- T/C [20]: 100 % of control
- T/C [21]: 93 % of control
- T/C [22]: 96 % of control

SMILES: C[CH2][Ge]([Cl])([CH2]C)[CH2]C
- T/C (dose: 50.0 mg/kg/injection, schedule: Q04DX003 (ip), vehicle: saline with Tween-80): 99 % of control

SMILES: Cc1cccc(N=Cc2cccc([N+](=O)[O-])c2)c1
- T/C (dose: 50.0 mg/kg/injection, schedule: Q04DX003 (ip), vehicle: Klucel (hydroxypropylcellulose) (HPC)): 98 % of control
- T/C (dose: 100.0 mg/kg/injection, schedule: Q01DX001 (ip), vehicle: Klucel (hydroxypropylcellulose) (HPC)): 100 % of control
- T/C [2]: 98 % of control
- T/C [16]: 94 % of control
- T/C [4]: 98 % of control
- T/C [17]: 92 % of control

SMILES: O=S(=O)(c1ccc(Cl)cc1)c1ccc(Cl)cc1
- T/C [7]: 91 % of control
- T/C (dose: 100.0 mg/kg/injection, schedule: Q04DX003 (ip), vehicle: saline with Tween-80): 102 % of control
- T/C [8]: 104 % of control
- T/C [18]: 95 % of control
- T/C (dose: 200.0 mg/kg/injection, schedule: Q04DX003 (ip), vehicle: saline with Tween-80): 107 % of control
- T/C [9]: 95 % of control
- T/C [19]: 93 % of control
- T/C (dose: 400.0 mg/kg/injection, schedule: Q04DX003 (ip), vehicle: saline with Tween-80): 95 % of control
- T/C (dose: 400.0 mg/kg/injection, schedule: Q04DX003 (ip), vehicle: saline): 106 % of control

SMILES: CCOC(=O)CP(=O)(OC)c1ccccc1 (stereo unspecified)
- T/C [7]: 97 % of control
- T/C [18]: 120 % of control
- T/C [19]: 101 % of control

SMILES: O=Cc1c(Cl)c(Cl)c(C=O)c(Cl)c1Cl
- T/C (dose: 50.0 mg/kg/injection, schedule: Q01DX001 (ip), vehicle: saline): 103 % of control
- T/C [10]: 103 % of control
- T/C [1]: 107 % of control
- T/C [2]: 102 % of control
- T/C [11]: 100 % of control
- T/C [3]: 115 % of control
- T/C [4]: 101 % of control
- T/C [12]: 105 % of control
- T/C [5]: 103 % of control
- T/C [6]: 98 % of control

SMILES: CCOc1ccc2[nH]c(=S)sc2c1
- T/C (dose: 50.0 mg/kg/injection, schedule: Q01DX009 (ip), vehicle: Klucel (hydroxypropylcellulose) (HPC)): 93 % of control
- T/C [1]: 102 % of control
- T/C [2]: 105 % of control
- T/C [3]: 86 % of control
- T/C [4]: 89 % of control
- T/C [6]: 100 % of control

SMILES: O=C1OCC/C1=C\NCCCN/C=C1\CCOC1=O
- T/C [20]: 105 % of control
- T/C [21]: 108 % of control
- T/C [22]: 94 % of control

SMILES: CC(C(O)c1cc(=O)n(C)c2ccccc12)[N+](=O)[O-] (stereo unspecified)
- T/C [13]: 95 % of control
- T/C [14]: 110 % of control
- T/C [15]: 101 % of control
